The target of the experiment is T1, human D2 receptor (short isoform) (Homo sapiens, UniProt P14416).
T1 construct: membrane homogenate, 3H-spiperone displacement
The experiment is described as follows: D2 receptor binding, displacement of 3H-spiperone (GH4C1 cells), for D2/D4 selectivity. As to conditions: for D2/D4: D4 selectivity, ratio D2/D4. How it is done:
The potency of the test compound to reduce ^3 H-spiperone binding directly correlated to its binding affinity for the receptor.
GH4 C1 (rat pituitary) cells stably transfected with the human D2 receptor (short isoform) were grown in CO2 independent media in roller bottles (1500 cm^2) for 10 days. 100 μM ZnSO4 was added to the cells (the D2 promoter being zinc inducible). After 16 hours, fresh media was added to allow the cells to recover for 24 hours. The cells were harvested using versene and then centrifuged in a Sorval centrifuge for 10 minutes, at 5000 rpm (GS3 rotor). Pellets were quickly frozen in liquid nitrogen and stored at -80° C. until used in the binding assays. When used in the assay, cells were thawed on ice for 20 minutes. […] 10 mL of incubation buffer was added to the pellets which were then vortexed, resuspended and homogenized with a Kinematica CH-6010 Kriens-LU homogenizer for 15 seconds at setting 7. The receptor protein concentration was determined using the Pierce BCA assay.
Total Spiperone Binding Assay
The incubation was started by the addition of 500 μl (50 μg protein) membrane homogenate to a solution of 900 μl incubation buffer and 100 μl (0.25 nM final conc.) ^3 H-spiperone (90 Ci/mmol Amersham diluted in borosilicate glass vial) in 12×75 mm polypropylene tubes. The tubes were vortexed and incubated at room temperature for 90 minutes. The binding reaction was stopped by filtering using a Brandell Cell Harvester. The samples were filtered under vacuum over glass fibre filters (Whatman GF/B) presoaked for 2 hours in 0.3% polyethyleneimine (PEI) in 50 mM Tris buffer (pH7.4). The filters were then washed 3 times with 5 mL ice cold 50 mM Tris buffer (pH7.4). Individual filter disks were put in scintillation vials (Biovials, Bechman). Ready Protein Plus liquid scintillant (5 mL, Beckman) was added and the vials counted by liquid scintillation spectrophotometry (Beckman LSC 6500) after equilibrating for three hours at room temperature to determine total binding (BT).
Non-Specific Binding Assay for D2
This assay employed the same procedures as the non-specific binding assay for D4 with the exception that 2 μM (final conc.) of (-) sulpiride (Research Chemicals Inc.) was used in place of dopamine.
Displacement Binding Assay
The incubation was started by the addition to 12×75 mm polypropylene tubes 500 μl (50 μg protein) membrane homogenate to a solution of 400 μl incubation buffer, 100 μl (0.25 final conc.) ^3 H-spiperone (90Ci/mmol, Amersham, diluted in borosilicate glass vial to) and […] of test compound that was prepared from 1 mM stock dissolved in DMSO and stored at -20° C. in polypropylene cryogenic storage vials until dilution in incubation buffer in borosilicate glass vials. The tubes were vortexed and incubated at room temperature for 90 minutes at which time the binding reaction was stopped by filtering. The filters were washed and counted using the same procedure as in the total binding assay described above to give the displacement binding value (BD).
Specific binding in the absence of test compound (BO) was the difference of total binding (BT) minus non-specific binding (NSB) and similarly specific binding (in the presence of test compound) (B) was the difference of displacement binding (BD) minus non-specific binding (NSB). IC50 was determined from an inhibition response curve, logit-log plot of %B/BO vs concentration of test compound.
Ki was calculated by the Cheng and Prustoff transformation: […]
where [L] is the concentration of ^3 H-spiperone used in the assay and KD is the to dissociation constant of ^3 H-spiperone determined independently under the same binding conditions.
(Loss of bound radioactivity is the signal in a displacement assay; it reports binding, not function.)

[1] abbreviates: compared with corresponding 4-methyl piperazine compound.

Each structure is given as a SMILES string.

T1 sequence (P14416 with tags, fused parts or gaps DEL242-270): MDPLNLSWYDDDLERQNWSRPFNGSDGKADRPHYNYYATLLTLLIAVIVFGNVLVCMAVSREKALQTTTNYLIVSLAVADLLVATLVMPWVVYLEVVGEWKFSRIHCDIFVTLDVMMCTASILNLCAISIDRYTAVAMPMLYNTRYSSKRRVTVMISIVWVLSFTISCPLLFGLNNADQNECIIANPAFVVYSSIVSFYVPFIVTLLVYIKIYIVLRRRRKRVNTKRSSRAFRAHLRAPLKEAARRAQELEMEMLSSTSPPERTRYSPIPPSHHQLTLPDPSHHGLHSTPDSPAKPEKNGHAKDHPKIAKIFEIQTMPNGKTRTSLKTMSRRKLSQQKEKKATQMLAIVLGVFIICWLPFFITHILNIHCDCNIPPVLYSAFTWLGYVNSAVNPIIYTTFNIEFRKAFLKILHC

`Clc1ccc2c(c1)C=C(N1CCN(Cc3ccc4c(c3)OCO4)CC1)c1ccccc1S2` [2-chloro-10-(4-piperonyl-1-piperazinyl)dibenzo[b,f]thiepine]: the D2/D4 was found to be 15.9. Besides, the D4 selectivity entry (compared with clozapine) is on record as “better D4 selectivity than clozapine”.

Regarding `Clc1ccc2c(c1)Nc1ccccc1N=C2N1CCN(Cc2ccc3c(c2)OCO3)CC1` [3-chloro-11-(4-piperonyl-1-piperazinyl)-5H-dibenzo[b,e][1,4]diazepine], the D2/D4 turned out to be 24.9. For the same compound, the D4 selectivity entry (compared with clozapine) is given as “better D4 selectivity than clozapine”.

With `Clc1ccc2c(c1)N=C(N1CCN(Cc3ccc4c(c3)OCO4)CC1)c1ccccc1O2` [8-chloro-11-(4-piperonyl)-1-piperazinyl)dibenz[b,f][1,4]oxazepine], the D2/D4 was determined as 23.8. Besides, the D4 selectivity entry (compared with clozapine) is given as “better D4 selectivity than clozapine”. For the same compound, the D4 selectivity entry under setting [1] is reported as “better D4selectivity than the corresponding 4-methyl piperazine compound”.

Turning to `c1ccc2c(c1)N=C(N1CCN(Cc3ccc4c(c3)OCO4)CC1)c1ccccc1O2` [11-(4-piperonyl)-1-piperazinyl)-dibenz[b,f][1,4]oxazepine], the D2/D4 is on record as 32.7. Under “compared with clozapine”, the D4 selectivity result is “better D4 selectivity than clozapine”. Also, the D4 selectivity entry under setting [1] was “better D4selectivity than the corresponding 4-methyl piperazine compound”.
